Assay results as given in paper PMC7112772 (Journal of Virological Methods, 2005).
Like-named read-outs stand apart in the source and are kept apart here.

Assays:
SARS-CoV [1] = conditions: for EC50: read-out: SARS-CoV EC50
SARS-CoV [2] = experiment: microbe, parasite or virus in culture; conditions: Severe acute respiratory syndrome coronavirus, 120 h, read-out: SARS-CoV EC50
in vitro [3] = conditions: African monkey
TGEV = experiment: microbe, parasite or virus in culture; type: cell-based, strain purdue112 (porcine coronavirus); conditions: read-out: TGEV EC50
in vitro [4] = conditions: pig

Compound	SI SARS CC50/EC50 (SARS-CoV [1])	EC50 (SARS-CoV [2]) [µM]	CC50 (in vitro [3]) [µM]	EC50 (TGEV; Alphacoronavirus 1, 120 h) [µM]	CC50 (in vitro [4]) [µM]	EC50 (SARS-CoV [1]) [µM]	EC50 (TGEV) [µM]	CC50 (LLC-PK1-EGFP cells) [µM]	CC50 (VeroE6-EGFP cells) [µM]
O=C(O)C1=CC(=C(c2ccc(O)c(C(=O)O)c2)c2ccc(O)c(C(=O)O)c2)C=CC1=O [ATA, aurintricarboxylic acid]	<1.00	> 9.19	9.19	> 56.9	56.9	–	–	–	–
Cc1cn([C@H]2C[C@H](N=[N+]=[N-])[C@@H](CO)O2)c(=O)[nH]c1=O [AZT]	–	–	–	–	–	> 100	> 100	> 100	> 100
CC1(C)[C@@H](O[C@H]2O[C@H](C(=O)O)[C@@H](O)[C@H](O)[C@H]2O[C@@H]2O[C@H](C(=O)O)[C@@H](O)[C@H](O)[C@H]2O)CC[C@]2(C)[C@H]3C(=O)C=C4[C@@H]5C[C@@](C)(C(=O)O)CC[C@]5(C)CC[C@@]4(C)[C@]3(C)CC[C@@H]12 [Glycirrhizin]	–	> 100	> 100	> 100	> 100	–	–	–	–
NC(=O)c1ncn([C@@H]2O[C@H](CO)[C@@H](O)[C@H]2O)n1 [Ribavirin]	–	> 100	> 100	> 20.2	20.2	–	–	–	–
Lopinavir/ritonavir	–	–	–	–	–	–	–	> 100	> 100
S-Nitroso-N-acetylpenicillamine	<1.00	–	–	–	–	> 530	> 312	312	530
dextran sulfate 5000 [DS5000]	–	–	–	–	–	> 100	> 100	> 100	> 100
